Results reported in patent publication US11912686B2 (Gilead Sciences, Inc., priority 2020, dated 2024).

What follows are molecules tested against human LPAR1 (Homo sapiens (Human), UniProt Q92633) (assay: LPAR1 intracellular calcium mobilization assay (antagonist mode, FLIPR)). Details: CHO-K1 EDG2 cells expressing human LPAR1, LPA 18:2 at EC80 (100 nM), test compound 0.5 nM to 10 μM.
Assay type: cell-based

Chain of human LPAR1 (Q92633 whole entry): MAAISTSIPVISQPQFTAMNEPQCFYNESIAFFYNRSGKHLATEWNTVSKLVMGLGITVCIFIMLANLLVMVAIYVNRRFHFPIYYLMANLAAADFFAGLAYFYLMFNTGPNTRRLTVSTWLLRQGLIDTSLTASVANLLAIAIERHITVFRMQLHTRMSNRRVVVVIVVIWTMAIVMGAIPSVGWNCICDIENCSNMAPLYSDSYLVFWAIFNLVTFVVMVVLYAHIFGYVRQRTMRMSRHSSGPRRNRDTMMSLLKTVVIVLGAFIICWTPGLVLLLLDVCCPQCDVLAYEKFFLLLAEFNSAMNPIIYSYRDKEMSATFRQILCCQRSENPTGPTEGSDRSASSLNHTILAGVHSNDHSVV

**Q.** How did the EC50 turn out when `CC(OC(=O)Nc1c(-c2ccc(NC(=O)C3(C#N)CC3)cn2)nnn1C)c1ccc(F)nc1Cl` (centres unmarked) [Compound 181, 1-(2-chloro-6-fluoropyridin-3-yl)ethyl (4-(5-(1-cyanocyclopropane-1-carboxamido)pyridin-2-yl)-1-methyl-1H-1,2,3-triazol-5-yl)carbamate] was run?
**A.** 428 nM

**Q.** How did the EC50 turn out when `C[C@@H](OC(=O)Nc1c(-c2ccc(NC(=O)N3CC(C#N)C3)cn2)nnn1C)c1cccnc1Cl` [Compound 191, (R)-1-(2-chloropyridin-3-yl)ethyl (4-(5-(3-cyanoazetidine-1-carboxamido)pyridin-2-yl)-1-methyl-1H-1,2,3-triazol-5-yl)carbamate] was run?
**A.** 620 nM

**Q.** With `CO[C@]1(C#N)C[C@@H](C(=O)Nc2cnc(-c3nnn(C)c3NC(=O)O[C@H](C)c3cc(F)cnc3F)nc2)C1` [Compound 334, (R)-1-(2,5-difluoropyridin-3-yl)ethyl (4-(5-((1r,3R)-3-cyano-3-methoxycyclobutane-1-carboxamido)pyrimidin-2-yl)-1-methyl-1H-1,2,3-triazol-5-yl)carbamate] as the molecule, how does the EC50 read?
**A.** 3420 nM

**Q.** Which EC50 does the source give for `C[C@@H](OC(=O)Nc1c(-c2ccc(NC(=O)C3(C#N)CC34CCC4)cn2)nnn1C)c1cccnc1Cl` (stereo partly drawn) [Compound 74, (R)-1-(2-chloropyridin-3-yl)ethyl (4-(5-(1-cyanospiro[2.3]hexane-1-carboxamido)pyridin-2-yl)-1-methyl-1H-1,2,3-triazol-5-yl)carbamate] here?
**A.** 1340 nM

**Q.** For `C[C@@H](OC(=O)Nc1c(-c2ccc(NC(=O)C3CCC3C#N)cn2)nnn1C)c1cccnc1Cl` (stereo partly drawn) [Compound 142, (R)-1-(2-chloropyridin-3-yl)ethyl (4-(5-(2-cyanocyclobutane-1-carboxamido)pyridin-2-yl)-1-methyl-1H-1,2,3-triazol-5-yl)carbamate], which EC50 is on record?
**A.** 217 nM

**Q.** `C[C@@H](OC(=O)Nc1c(-c2ccc(NC(=O)C3(c4cccnc4)CC(F)(F)C3)cn2)nnn1C)c1cccnc1Cl` [Compound 198, (R)-1-(2-chloropyridin-3-yl)ethyl (4-(5-(3,3-difluoro-1-(pyridin-3-yl)cyclobutane-1-carboxamido)pyridin-2-yl)-1-methyl-1H-1,2,3-triazol-5-yl)carbamate] was tested. Which EC50 did it give?
**A.** 613 nM

**Q.** Which EC50 does the source give for `C[C@@H](OC(=O)Nc1c(-c2ccc(NC(=O)C(C)(C)C#N)cn2)nnn1C)c1cccnc1Cl` [Compound 129, (R)-1-(2-chloropyridin-3-yl)ethyl (4-(5-(2-cyano-2-methylpropanamido)pyridin-2-yl)-1-methyl-1H-1,2,3-triazol-5-yl)carbamate] here?
**A.** 492 nM

**Q.** For `C[C@@H](OC(=O)Nc1c(-c2ccc(NC(=O)C3(C#N)CC4(CCC4)C3)cn2)nnn1C)c1cccnc1Cl` [Compound 79, (R)-1-(2-chloropyridin-3-yl)ethyl (4-(5-(2-cyanospiro[3.3]heptane-2-carboxamido)pyridin-2-yl)-1-methyl-1H-1,2,3-triazol-5-yl)carbamate], which EC50 is on record?
**A.** 16 nM

**Q.** How did the EC50 turn out when `Cc1cc(C(=O)Nc2ccc(-c3nnn(C)c3NC(=O)O[C@H](C)c3cc(F)cnc3F)nc2)on1` [Compound 260, (R)-1-(2,5-difluoropyridin-3-yl)ethyl (1-methyl-4-(5-(3-methylisoxazole-5-carboxamido)pyridin-2-yl)-1H-1,2,3-triazol-5-yl)carbamate] was run?
**A.** 161 nM

**Q.** With `C[C@@H](OC(=O)Nc1c(-c2ncc(NC(=O)c3ccc(C(F)(F)F)nc3)cn2)nnn1C)c1cc(F)cnc1Cl` [Compound 332, (R)-1-(2-chloro-5-fluoropyridin-3-yl)ethyl (1-methyl-4-(5-(6-(trifluoromethyl)nicotinamido)pyrimidin-2-yl)-1H-1,2,3-triazol-5-yl)carbamate] as the molecule, how does the EC50 read?
**A.** 354 nM

**Q.** Which EC50 does the source give for `C[C@@H](OC(=O)Nc1c(-c2ccc(NC(=O)C3(C#N)CC3)cn2)nnn1C)c1cc(F)cnc1Cl` [Compound 168, (R)-1-(2-chloro-5-fluoropyridin-3-yl)ethyl (4-(5-(1-cyanocyclopropane-1-carboxamido)pyridin-2-yl)-1-methyl-1H-1,2,3-triazol-5-yl)carbamate] here?
**A.** 16.2 nM

**Q.** How did the EC50 turn out when `CC(=O)Nc1ccc(-c2nnn(C)c2NC(=O)O[C@H](CF)c2cccc(F)c2)nc1` [Compound 25, (S)-2-fluoro-1-(3-fluorophenyl)ethyl (4-(5-acetamidopyridin-2-yl)-1-methyl-1H-1,2,3-triazol-5-yl)carbamate] was run?
**A.** 2270 nM

**Q.** How did the EC50 turn out when `C[C@@H](OC(=O)Nc1c(-c2ccc(NC(=O)[C@@H]3C[C@H]3c3ccncc3)cn2)nnn1C)c1cc(F)cnc1F` (mixture of isomers) [Compound 217, (R)-1-(2,5-difluoropyridin-3-yl)ethyl (1-methyl-4-(5-((1RS,2RS)-2-(pyridin-4-yl)cyclopropane-1-carboxamido)pyridin-2-yl)-1H-1,2,3-triazol-5-yl)carbamate] was run?
**A.** 58.1 nM

**Q.** How did the EC50 turn out when `C[C@@H](OC(=O)Nc1c(-c2ccc(NC(=O)C3(C#N)CC3)cn2)nnn1C)c1cc(F)cnc1F` [Compound 39, (R)-1-(2,5-difluoropyridin-3-yl)ethyl (4-(5-(1-cyanocyclopropane-1-carboxamido)pyridin-2-yl)-1-methyl-1H-1,2,3-triazol-5-yl)carbamate] was run?
**A.** 50.8 nM

**Q.** Which EC50 does the source give for `Cc1ncc(F)cc1[C@@H](C)OC(=O)Nc1c(-c2ccc(NC(=O)C3(C#N)CC3)cn2)nnn1C` [Compound 177, (R)-1-(5-fluoro-2-methylpyridin-3-yl)ethyl (4-(5-(1-cyanocyclopropane-1-carboxamido)pyridin-2-yl)-1-methyl-1H-1,2,3-triazol-5-yl)carbamate] here?
**A.** 48.3 nM

**Q.** How did the EC50 turn out when `C[C@@H](OC(=O)Nc1c(-c2ccc(NC(=O)[C@H]3C[C@@]4(CC4(F)F)C3)cn2)nnn1C)c1cccnc1Cl` [Compound 85, (R)-1-(2-chloropyridin-3-yl)ethyl (4-(5-((3R,5r)-1,1-difluorospiro[2.3]hexane-5-carboxamido)pyridin-2-yl)-1-methyl-1H-1,2,3-triazol-5-yl)carbamate] was run?
**A.** 11.2 nM

**Q.** How did the EC50 turn out when `C[C@@H](OC(=O)Nc1c(-c2ccc(NC(=O)[C@H]3[C@H](c4ccccc4)C3(F)F)cn2)nnn1C)c1cc(F)cnc1F` (mixture of isomers) [Compound 247, (R)-1-(2,5-difluoropyridin-3-yl)ethyl (4-(5-((1RS,3RS)-2,2-difluoro-3-phenylcyclopropane-1-carboxamido)pyridin-2-yl)-1-methyl-1H-1,2,3-triazol-5-yl)carbamate] was run?
**A.** 13 nM

**Q.** For `C[C@@H](OC(=O)Nc1c(-c2ccc(NC(=O)[C@@H]3C[C@H]3C3CC3)cn2)nnn1C)c1cc(F)cnc1F` [Compound 267, (R)-1-(2,5-difluoropyridin-3-yl)ethyl (4-(5-((1S,2R)[1,1′-bi(cyclopropane)]-2-carboxamido)pyridin-2-yl)-1-methyl-1H-1,2,3-triazol-5-yl)carbamate], which EC50 is on record?
**A.** 588 nM

**Q.** With `C[C@@H](OC(=O)Nc1c(-c2ccc(NC(=O)C3(C(F)F)CC3)cn2)nnn1C)c1cc(F)cnc1F` [Compound 165, (R)-1-(2,5-difluoropyridin-3-yl)ethyl (4-(5-(1-(difluoromethyl)cyclopropane-1-carboxamido)pyridin-2-yl)-1-methyl-1H-1,2,3-triazol-5-yl)carbamate] as the molecule, how does the EC50 read?
**A.** 487 nM

**Q.** `C[C@@H](OC(=O)Nc1c(-c2ccc(NC(=O)C34CC(O)(C3)C4)cn2)nnn1C)c1cccnc1Cl` [Compound 117, (R)-1-(2-chloropyridin-3-yl)ethyl (4-(5-(3-hydroxybicyclo[1.1.1]pentane-1-carboxamido)pyridin-2-yl)-1-methyl-1H-1,2,3-triazol-5-yl)carbamate] was tested. Which EC50 did it give?
**A.** 1140 nM

**Q.** With `C[C@@H](OC(=O)Nc1c(-c2cnc(NC(=O)c3ccc(C(F)(F)F)nc3)cn2)nnn1C)c1cccnc1F` [Compound 326, (R)-1-(2-fluoropyridin-3-yl)ethyl (1-methyl-4-(5-(6-(trifluoromethyl)nicotinamido)pyrazin-2-yl)-1H-1,2,3-triazol-5-yl)carbamate] as the molecule, how does the EC50 read?
**A.** 305 nM

**Q.** `C[C@@H](OC(=O)Nc1c(-c2ccc(NC(=O)[C@@H]3CCC3(F)F)cn2)nnn1C)c1cccnc1Cl` [Compound 90, (R)-1-(2-chloropyridin-3-yl)ethyl (4-(5-((S)-2,2-difluorocyclobutane-1-carboxamido)pyridin-2-yl)-1-methyl-1H-1,2,3-triazol-5-yl)carbamate] was tested. Which EC50 did it give?
**A.** 73.5 nM

**Q.** How did the EC50 turn out when `C[C@@H](OC(=O)Nc1c(-c2ccc(NC(=O)CC3OCCO3)cn2)nnn1C)c1cccnc1Cl` [Compound 196, (R)-1-(2-chloropyridin-3-yl)ethyl (4-(5 (2-(1,3-dioxolan-2-yl)acetamido)pyridin-2-yl)-1-methyl-1H-1,2,3-triazol-5-yl)carbamate] was run?
**A.** 1030 nM

**Q.** How did the EC50 turn out when `C[C@@H](OC(=O)Nc1c(-c2ccc(NC(=O)[C@]3(F)C[C@@H](O)C3)cn2)nnn1C)c1cccnc1Cl` [Compound 134, (R)-1-(2-chloropyridin-3-yl)ethyl (4-(5-((1s,3S)-1-fluoro-3-hydroxycyclobutane-1-carboxamido)pyridin-2-yl)-1-methyl-1H-1,2,3-triazol-5-yl)carbamate] was run?
**A.** 449 nM

**Q.** Which EC50 does the source give for `C[C@@H](OC(=O)Nc1c(-c2ccc(NC(=O)C3(C#N)CC3)cn2)nnn1C)c1cccnc1Cl` [Compound 67, (R)-1-(2-chloropyridin-3-yl)ethyl (4-(5-(1-cyanocyclopropane-1-carboxamido)pyridin-2-yl)-1-methyl-1H-1,2,3-triazol-5-yl)carbamate] here?
**A.** 30.8 nM

**Q.** For `C[C@@H](OC(=O)Nc1c(-c2ccc(NC(=O)C3CC(NC4CC4)C3)cn2)nnn1C)c1cccnc1Cl` (some centres unmarked) [Compound 311], which EC50 is on record?
**A.** 1530 nM

**Q.** `C[C@@H](OC(=O)Nc1c(-c2ccc(NC(=O)C3(C#N)CC3)cn2)nnn1C)c1cccnc1F` [Compound 172, (R)-1-(2-fluoropyridin-3-yl)ethyl (4-(5-(1-cyanocyclopropane-1-carboxamido)pyridin-2-yl)-1-methyl-1H-1,2,3-triazol-5-yl)carbamate] was tested. Which EC50 did it give?
**A.** 236 nM

**Q.** For `CCC(=O)Nc1ccc(-c2nnn(C)c2NC(=O)O[C@H](C)c2cccnc2Cl)nc1` [Compound 33, (R)-1-(2-chloropyridin-3-yl)ethyl (1-methyl-4-(5-propionamidopyridin-2-yl)-1H-1,2,3-triazol-5-yl)carbamate], which EC50 is on record?
**A.** 1020 nM

**Q.** `C[C@@H](OC(=O)Nc1c(-c2ncc(NC(=O)[C@@H]3C[C@H]3C(F)(F)F)cn2)nnn1C)c1cc(F)cnc1Cl` [Compound 331, (R)-1-(2-chloro-5-fluoropyridin-3-yl)ethyl (1-methyl-4-(5-((1R,2R)-2-(trifluoromethyl)cyclopropane-1-carboxamido)pyrimidin-2-yl)-1H-1,2,3-triazol-5-yl)carbamate] was tested. Which EC50 did it give?
**A.** 22.8 nM
